Results: patent EP0486921A1, “N-acetyl-L-cysteine magnesium salt and pharmaceutical compositions containing it” (ZAMBON GROUP S.p.A., priority 1990, dated 1992)
Counter-ions that a name gives are not always drawn.

What was measured:
anesthetized guinea pigs = conditions: guinea pig, in vivo
Protocol: The experiments were carried out according to the Konzett and Rössler technique [Arch. Exp. Patol. Pharmakol., 195, 71, (1940)] in anesthetized guinea pigs, where the potential increase in total airway resistance induced by the tested compounds was registered as a change in air overflow.
Male guinea pigs (500-600 g body weight) were anesthetized with ethylurethane (1.25 g/kg/i.p.) and the anesthesia was maintained by additional doses of ethylurethane given by intravenous route.
A catheter was inserted into the jugular vein for the administration of histamine.
The guinea pigs were subjected to forced ventilation at constant volume and at 72 breaths/minute.
Basal overflow value was set up to 8 cm H20.
Equimolecular doses of N-acetyl-L-cysteine in the form of free acid, lysine salt, calcium salt and magnesium salt [(NAC)2Mg] were administered as a micronized powder in trachea by forced insufflation.
The bronchoconstrictive effect was evaluated as the equivalent dose of histamine causing the same change in air overflow.
In control experiments the effect of forced insufflation of lactose was evaluated.

Solubility in water = type: physicochemical
Excerpt: solubility in water: about 50%

pH of aqueous solution = type: physicochemical; conditions: 1 % aqueous solution
Excerpt: pH (1 % aqueous solution) = 5.35

predisposed subjects = conditions: the patent says tested doses were much lower than therapeutically useful doses; cited from earlier work

**Q.** Which “Histamine dose X-±S.E. (dose of hystamine causing a bronchospasm equivalent to the change in air overflow)” value (anesthetized guinea pigs) does the source give for `CC(=O)N[C@@H](CS)C(=O)O` [(NAC)2Mg, N-acetyl-L-cysteine magnesium salt] here?
**A.** 3.96±0.28 ^(**) µg/kg/i.v.

**Q.** What about the “bronchoconstrictive effect compared with N-acetyl-L-cysteine” value (anesthetized guinea pigs) of the same compound?
**A.** significantly lower

**Q.** What about the solubility (Solubility in water) of the same compound?
**A.** ~500 mg/mL

**Q.** What about the pH (pH of aqueous solution) of the same compound?
**A.** 5.35

**Q.** What does the source list for `CC(=O)N[C@@H](CS)C(=O)O` [NAC calcium salt]?
**A.** Histamine dose X-±S.E. (dose of hystamine causing a bronchospasm equivalent to the change in air overflow) (anesthetized guinea pigs): 7.03±1.48 µg/kg/i.v.; bronchoconstrictive effect compared with N-acetyl-L-cysteine (anesthetized guinea pigs): not significantly different

**Q.** For `CC(=O)N[C@@H](CS)C(=O)O` [NAC lysine salt], which “Histamine dose X-±S.E. (dose of hystamine causing a bronchospasm equivalent to the change in air overflow)” value (anesthetized guinea pigs) is on record?
**A.** 4.53±0.40 µg/kg/i.v.

**Q.** And the induction of bronchospasm (predisposed subjects)?
**A.** does not induce bronchospasm

**Q.** With `CC(=O)N[C@@H](CS)C(=O)O` [NAC, N-acetyl-L-cysteine] as the compound, how does the “Histamine dose X-±S.E. (dose of hystamine causing a bronchospasm equivalent to the change in air overflow)” value (anesthetized guinea pigs) read?
**A.** 5.81±0.93 µg/kg/i.v.
